Like-named read-outs stand apart in the source and are kept apart here.
Key:
[1] = molecular target: T1, His tagged PTPN2 (TC45) protein (Homo sapiens, UniProt P17706); assay: Mobility shift assay (MSA) for potency of PTPN2 inhibitors; format: biochemical; details: read-out: PTPN2 MSA IC50
T1 construct: made in house
T1 sequence (P17706 with tags, fused parts or gaps isoform P17706-2): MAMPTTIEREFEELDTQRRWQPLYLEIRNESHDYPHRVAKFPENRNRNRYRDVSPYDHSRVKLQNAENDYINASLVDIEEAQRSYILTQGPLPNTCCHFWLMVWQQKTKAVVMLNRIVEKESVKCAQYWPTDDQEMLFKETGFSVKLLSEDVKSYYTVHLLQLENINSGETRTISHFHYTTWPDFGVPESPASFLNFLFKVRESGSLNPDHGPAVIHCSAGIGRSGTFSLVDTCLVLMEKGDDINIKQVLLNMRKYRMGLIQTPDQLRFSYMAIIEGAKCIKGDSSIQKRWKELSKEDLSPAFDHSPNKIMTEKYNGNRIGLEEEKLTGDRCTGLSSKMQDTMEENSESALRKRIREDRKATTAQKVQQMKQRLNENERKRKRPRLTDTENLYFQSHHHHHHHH
Method in brief: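 IC50 values were derived from % inhibition of substrate conversion, measured by microfluidic mobility shift (ex 488/em 530) after quenching. The fluorescent phosphotyrosine insulin-receptor peptide ([…]) reacted for 10 min at room temperature with 0.5 nM His-tagged TC45 PTPN2 that had been preincubated 10 min with compound (12 points, 1:3). Buffer was HEPES pH 7.5 with EGTA, EDTA, Tween 20 and DTT.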

[2] = test system: Pan T cells isolated from C57BL6 splenocytes; assay: T cell activation assay (flow cytometry, CD25/CD69 on CD8 T cells); format: cell-based, mouse; details: for % CD25 within CD8+ / % CD69 within CD8+ / CD25 MFI / CD69 MFI: 30 μM compound, 2 days
Procedure: (§1) Pan T cells were isolated from C57BL6 splenocytes using a MACS Pan T cell isolation kit II (Miltenyi Biotec, Auburn, Calif.) according to the manufacturer's instructions. Isolated T cells (200,000 cells/well in a 96 well flat-bottom plate) were cultured in RPMI 1640 supplemented with 10% FBS, […] 2-mercatoethanol, 100 U/mL penicillin, and 100 μg/mL streptomycin, and incubated with the indicated concentration of compound or DMSO in duplicates. After 1 hour, mouse T cell activator CD3/CD28 Dynabeads (ThermoFisher Scientific, Waltham, Mass.) were added at a 1:5 beads to cells ratio to stimulate the T cells for 2 or 3 days as outlined below. T cells with or without compound were incubated in the absence of T cell activator beads (media only) as control.
After 2 days of stimulation, activation status of T cells was assessed by flow cytometry. T cells were first subjected to Zombie Violet™ Fixable Viability dye (BioLegend, San Diego, Calif.) for dead cell exclusion, washed and then stained with BUV805 labeled anti-CD8, APC-R700 labeled anti-CD25 (both from BD Biosciences, San Jose, Calif.) and PE labeled anti-CD69 (BioLegend, San Diego, Calif.) antibodies. After staining, cells were fixed with 2% paraformaldehyde and acquired on a BD LSRFortessa™ X-20 flow cytometer (BD Biosciences, San Jose, Calif.) using BD FACSDiva™ software. Data was analyzed using FlowJo V10 (Flow Jo LLC, Ashland, Oreg.). Dead cells were excluded and frequencies of activated CD8 T cells was reported as the frequency of CD25+ or CD69+ cells within the CD8+ population. The expression level of CD25 and CD69 indicates the activation status of cells on a per cell basis and was evaluated by the mean fluorescence intensities (MFI) of CD25 and CD69.

[3] = test system: Pan T cells isolated from C57BL6 splenocytes; assay: T cell function assay (IFNγ and TNFα in supernatants, MSD V-plex); format: cell-based, mouse; details: 30 μM compound, 3 days, supernatant
Procedure: as §1
After 3 days of stimulation, supernatants were collected and IFNγ and TNFα in supernatants were assessed using an MSD V-plex assay (Meso Scale Discovery, Rockville, Md.).

[4] = test system: B16F10 mouse melanoma cells; assay: B16F10 IFNγ-induced cellular growth inhibition assay; format: cell-based; details: Mus musculus, B16-F10, 33 μM compound
Method in brief: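 Live-cell imaging of confluence every 6 h over 5 days at 37 °C tracked growth of mouse B16F10 melanoma cells seeded overnight at 500/well. Semi-log compound series (final 100–0.001 μM, 0.1% DMSO) ran in both arms, ±IFNγ at 0.5 ng/mL final; inhibition taken relative to DMSO plus IFNγ when IFNγ-free DMSO wells passed 95% confluence.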

[5] = anti-CD3/anti-CD28 Dynabeads (1:5 beads:cells)

## O=C1CN(c2c(O)cc3ccc(C4=CCN(S(=O)(=O)C5CC5)C4)cc3c2F)S(=O)(=O)N1 [Compound 113, 5-{7-[1-(cyclopropanesulfonyl)-2,5-dihydro-1H-pyrrol-3-yl]-1-fluoro-3-hydroxynaphthalen-2-yl}-1λ^6,2,5-thiadiazolidine-1,1,3-trione]
[1]
  IC50: < 1 nM
[2]; [5]
  % CD25 within CD8+: 44.55%
  % CD69 within CD8+: 73.95%
  CD25 MFI: 1265
  CD69 MFI: 1891
[2]; no TCR stimulation
  % CD25 within CD8+: 0.49%
  % CD69 within CD8+: 0.24%
  CD25 MFI: 51.7
  CD69 MFI: 28.8
[2]; with TCR stimulation
  T cell activation and T cell function: increased both T cell activation and T cell function
[3]; [5]
  IFNγ: 356 ng/mL
  TNFα: 208 ng/mL
[3]; no TCR stimulation
  IFNγ: 1.2 ng/mL
  TNFα: 1.5 ng/mL
[4]; +0.5 ng/mL IFNγ, relative to DMSO control, read-out: % B16F10 growth inhibition (+0.5 ng/mL IFNγ) @ 33 μM
  inhibition at 33 µM: > 90%
[4]; no IFNγ, read-out: % B16F10 growth inhibition (no IFNγ) @ 33 μM
  inhibition at 33 µM: < 25%

Reference: patent US20210009542A1 (Calico Life Sciences LLC, priority 2018, published 2021)
